Read-outs that look alike come from different tables or passages of the source.
Assays:
[1] = Dose-finding study: lever pressing for food (FR 10); conditions: two monkeys
[2] = IV self-administration substitution study in heroin-maintained primates (FR 30)
[3] = Pretreatment study: effect on heroin self-administration; assay type: in vivo, rhesus monkeys
[4] = Rat tolerance/dependence study, 28 day repeated dosing and withdrawal
[5] = Cue-induced reinstatement (relapse) in heroin addicted rats; assay type: in vivo, male Long-Evans hooded rats
[6] = rat, in vivo

O=C1CN2c3c(cccc3[C@@H]3CN(CCCOc4ccc(F)cc4)CC[C@@H]32)N1 [Example 1, (6bR,10aS)-8-(3-(4-fluorophenoxy)propyl)-6b,7,8,9,10,10a-hexahydro-1H-pyrido[3′,4′:4,5]pyrrolo[1,2,3-de]quinoxalin-2(3H)-one]
average rate of responding for food ([1]; 0.0001 mg/kg IV): 0.94±0.01 responses per second
average rate of responding for food ([1]; 0.001 mg/kg IV): 0.86±0.11 responses per second
average rate of responding for food ([1]; 0.01 mg/kg IV): 0.97±0.21 responses per second
average rate of responding for food ([1]; 0.1 mg/kg IV): 0.98±0.24 responses per second
Infusions per session (mean ± SEM, N = 4) ([2]; 0.01 mg/kg/infusion IV): 0.6 ± 0.2
Infusions per session (mean ± SEM, N = 4) ([2]; 0.1 mg/kg/infusion IV): 1.5 ± 0.3
Heroin infusions per session (mean ± SEM, N = 4) ([3]; pretreatment 0.1 mg/kg IV 15 minutes prior): 24.8 ± 0.8
Heroin infusions per session (mean ± SEM, N = 4) ([3]; pretreatment 1.0 mg/kg IV 15 minutes prior): 23.3 ± 2.8
Heroin infusions per session (mean ± SEM, N = 4) ([3]; pretreatment 1.0 mg/kg SC (100% PEG) 15 minutes prior): 24.5 ± 1.9
predominant behavioral and physical effects during the dosing phase ([4]; 0.3 mg/kg s.c. four times per day): hunched posture, Straub tail and piloerection
tolerance during dosing for 28 days ([4]; 0.3 and 3 mg/kg s.c. four times per day): does not produce tolerance
physical dependence upon cessation of dosing ([4]; 0.3 and 3 mg/kg s.c. four times per day, 28 days): not to produce a syndrome of physical dependence
effect on animal body weight, food and water intake or body temperature ([4]; 0.3 and 3 mg/kg s.c. four times per day, on-dose or withdrawal phase): no significant effect
main behavioral and physical signs during the dosing phase ([4]; higher dose, 3 mg/kg s.c. four times per day): hunched posture, subdued behavior, Straub tail, tail rattle and piloerection
Active lever presses during the reinstatement test session ([5]; 1 mg/kg s.c. 30 minutes pre-session): 22.64
Active lever presses during the reinstatement test session ([5]; 3 mg/kg s.c. 30 minutes pre-session): 31.17
Active lever presses during the reinstatement test session ([5]; 10 mg/kg s.c. 30 minutes pre-session): 29.50
t-1/2 ([6]; po, 10 mg/kg): 3.1 h
t-1/2 ([6]; sc, 3 mg/kg): 9.5 h

CN1CC[C@]23c4c5ccc(O)c4O[C@H]2[C@@H](O)C=C[C@H]3[C@H]1C5 [Morphine, morphine, reference compound]
tolerance and dependence ([4]; 30 mg/kg orally twice per day, 28 days): clear signs of tolerance and dependence

— US20220088014A1 (priority 2019, published 2022)
